Results taken from ChEMBL document CHEMBL1201862, “PubChem BioAssay data set” (2004).
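96-well plates; 48 h exposure; 5 concentrations. Endpoints by linear interpolation between flanking doses. Not reached: highest tested concentration assigned. Here, GI50 denotes the concentration required for 50% inhibition of growth.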 Activity calls are given as the source filed them. No stated cut-off is given here; in the data, active = GI50 up to about 1.1 µM and inactive = higher.

Experiments:
Experiment in all cases: DTP human tumour cell line panel, 48 h
[1] = tested on: COLO 205
[2] = tested on: SW-620
[3] = tested on: EKVX
[4] = tested on: HCC 2998
[5] = tested on: UACC-257
[6] = tested on: HCT-15
[7] = tested on: M14
[8] = tested on: Hs-578T
[9] = tested on: HL-60
[10] = tested on: CAKI-1
[11] = tested on: IGROV-1
[12] = tested on: SF-539
[13] = tested on: MDA-MB-435
[14] = tested on: A549
[15] = tested on: UO-31
[16] = tested on: NCI-H23
[17] = tested on: A498
[18] = tested on: ACHN
[19] = tested on: SK-MEL-5
[20] = tested on: SK-MEL-28
[21] = tested on: MCF7
[22] = tested on: T47D
[23] = tested on: MDA-MB-231
[24] = tested on: HOP-62
[25] = tested on: HCT-116
[26] = tested on: OVCAR-5
[27] = tested on: OVCAR-8
[28] = tested on: CCRF-CEM
[29] = tested on: NCI-H522
[30] = tested on: K562
[31] = tested on: UACC-62
[32] = tested on: KM12
[33] = tested on: LOX IMVI
[34] = tested on: SK-OV-3
[35] = tested on: SNB-75
[36] = tested on: PC-3
[37] = tested on: HT-29
[38] = tested on: OVCAR-3
[39] = tested on: DU-145
[40] = tested on: TK-10
[41] = tested on: SF-268
[42] = tested on: MOLT-4
[43] = tested on: SF-295
[44] = tested on: NCI-H226
[45] = tested on: 786-0
[46] = tested on: SK-MEL-2
[47] = tested on: U-251
[48] = tested on: NCI/ADR-RES
[49] = tested on: OVCAR-4
[50] = tested on: RXF 393
[51] = tested on: SR
[52] = tested on: SN12C
[53] = tested on: HOP-92
[54] = tested on: SNB-19
[55] = tested on: BT-549
[56] = tested on: NCI-H460
[57] = tested on: Malme-3M

O=C1[C@@H]2[C@@H](c3ccccc3)[C@]2(Cl)C(=O)[C@H]2[C@H](c3ccccc3)[C@@]12Cl
GI50 [1]: > 100 µM (inactive)
GI50 [2]: > 100 µM (inactive)
GI50 [3]: > 100 µM (inactive)
GI50 [4]: > 100 µM (inactive)
GI50 [5]: > 100 µM (inactive)
GI50 [6]: > 100 µM
GI50 [7]: > 100 µM (inactive)
GI50 [8]: > 100 µM (inactive)
GI50 [9]: > 100 µM (inactive)
GI50 [10]: > 100 µM (inactive)
GI50 [11]: > 100 µM (inactive)
GI50 [12]: > 100 µM (inactive)
GI50 [13]: > 100 µM (inactive)
GI50 [14]: > 100 µM (inactive)
GI50 [15]: 57 µM (inactive)
GI50 [16]: > 100 µM (inactive)
GI50 [17]: > 100 µM (inactive)
GI50 [18]: > 100 µM (inactive)
GI50 [19]: > 100 µM (inactive)
GI50 [20]: > 100 µM (inactive)
GI50 [21]: > 100 µM (inactive)
GI50 [22]: > 100 µM (inactive)
GI50 [23]: > 100 µM (inactive)
GI50 [24]: > 100 µM (inactive)
GI50 [25]: > 100 µM (inactive)
GI50 [26]: > 100 µM (inactive)
GI50 [27]: > 100 µM (inactive)
GI50 [28]: > 100 µM (inactive)
GI50 [29]: > 100 µM (inactive)
GI50 [30]: > 100 µM (inactive)
GI50 [31]: > 100 µM (inactive)
GI50 [32]: > 100 µM (inactive)
GI50 [33]: > 100 µM (inactive)
GI50 [34]: > 100 µM (inactive)
GI50 [35]: > 100 µM (inactive)
GI50 [36]: > 100 µM (inactive)
GI50 [37]: > 100 µM (inactive)
GI50 [38]: > 100 µM (inactive)
GI50 [39]: > 100 µM (inactive)
GI50 [40]: > 100 µM (inactive)
GI50 [41]: > 100 µM (inactive)
GI50 [42]: > 100 µM (inactive)
GI50 [43]: > 100 µM (inactive)
GI50 [44]: > 100 µM (inactive)
GI50 [45]: > 100 µM (inactive)
GI50 [46]: > 100 µM (inactive)
GI50 [47]: > 100 µM (inactive)
GI50 [48]: > 100 µM (inactive)
GI50 [49]: > 100 µM (inactive)
GI50 [50]: > 100 µM (inactive)
GI50 [51]: 0.189 µM (active)
GI50 [52]: > 100 µM (inactive)
GI50 [53]: > 100 µM (inactive)
GI50 [54]: > 100 µM (inactive)
GI50 [55]: 45.8 µM (inactive)
GI50 [56]: > 100 µM (inactive)
GI50 [57]: > 100 µM (inactive)
